Test results: ChEMBL document CHEMBL1135389, “7-Substituted 5-amino-2-(2-furyl)pyrazolo[4,3-e]-1,2,4-triazolo[1,5-c]pyrimidines as A2A adenosine receptor antagonists: a study on the importance of modifications at the side chain on the activity and solubility” (J Med Chem, 2002)

Assays:
Adenosine receptor A2b [1] = target: T1, Adenosine receptor A2b (Homo sapiens, UniProt P29275); test: biochemical
T1 sequence (P29275 whole entry): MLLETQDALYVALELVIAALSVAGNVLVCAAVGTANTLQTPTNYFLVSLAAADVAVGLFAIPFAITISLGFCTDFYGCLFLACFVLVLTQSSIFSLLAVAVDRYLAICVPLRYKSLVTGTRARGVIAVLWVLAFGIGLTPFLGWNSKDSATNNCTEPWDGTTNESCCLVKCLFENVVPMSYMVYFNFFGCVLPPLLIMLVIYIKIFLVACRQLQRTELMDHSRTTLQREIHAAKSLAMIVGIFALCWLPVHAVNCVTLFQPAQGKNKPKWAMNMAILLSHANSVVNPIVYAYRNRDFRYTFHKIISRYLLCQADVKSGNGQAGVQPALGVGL
Description: (§1) Displacement of specific [3H]DPCPX binding at human adenosine A2B receptor expressed in HEK293 cells.

Adenosine receptor A1 [2] = target: T2, Adenosine receptor A1 (Homo sapiens, UniProt P30542); test: biochemical
T2 sequence (P30542 whole entry): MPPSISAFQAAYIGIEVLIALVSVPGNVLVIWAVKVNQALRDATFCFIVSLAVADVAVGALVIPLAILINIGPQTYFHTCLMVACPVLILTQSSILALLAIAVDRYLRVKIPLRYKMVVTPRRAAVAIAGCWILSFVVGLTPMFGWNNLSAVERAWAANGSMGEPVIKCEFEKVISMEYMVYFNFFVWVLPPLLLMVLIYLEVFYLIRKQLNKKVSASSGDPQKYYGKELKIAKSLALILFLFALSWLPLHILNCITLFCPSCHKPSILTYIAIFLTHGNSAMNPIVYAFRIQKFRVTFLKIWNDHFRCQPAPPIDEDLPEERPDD
Description: Displacement of specific [3H]DPCPX binding at human Adenosine A1 receptor expressed in CHO cells.

Adenosine receptor A3 = target: T3, Adenosine receptor A3 (Homo sapiens, UniProt P0DMS8); test: Displacement of specific [3H]MRE3008-F20 binding at human adenosine A3 receptor expressed in CHO cells.; type: cell-based
T3 sequence (P0DMS8 whole entry): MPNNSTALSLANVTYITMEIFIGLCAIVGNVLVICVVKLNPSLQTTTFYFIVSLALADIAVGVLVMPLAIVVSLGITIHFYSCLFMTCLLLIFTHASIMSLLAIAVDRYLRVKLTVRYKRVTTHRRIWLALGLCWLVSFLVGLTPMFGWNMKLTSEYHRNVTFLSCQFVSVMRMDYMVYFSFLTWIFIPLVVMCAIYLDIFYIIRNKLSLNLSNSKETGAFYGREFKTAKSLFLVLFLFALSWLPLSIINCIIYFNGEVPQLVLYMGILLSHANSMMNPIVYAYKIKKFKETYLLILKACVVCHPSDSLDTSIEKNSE

Adenosine receptor A2a [3] = target: T4, Adenosine receptor A2a (Homo sapiens, UniProt P29274); test: biochemical
Adenosine receptor A2a [4] = target: T4, Adenosine receptor A2a; test: Displacement of [3H]-SCH- 58261 binding at human Adenosine A2A receptor expressed in HEK293 cells; ranges from 129-152; type: cell-based
Adenosine receptor A1 [5] = target: T2, Adenosine receptor A1; test: Displacement of [3H]-DPCPX from human Adenosine A1 receptor expressed in CHO cells; ranges from 107-181; type: cell-based
Adenosine receptor A2b [6] = target: T1, Adenosine receptor A2b; conditions: hek293
Description: as §1

Adenosine receptor A2a [7] = target: T4, Adenosine receptor A2a; test: Displacement of [3H]-SCH- 58261 binding at human Adenosine A2A receptor expressed in HEK293 cells; ranges from 98-144; type: cell-based
Adenosine receptor A1 [8] = target: T2, Adenosine receptor A1; test: Displacement of [3H]DPCPX from human Adenosine A1 receptor expressed in CHO cells; ranges from 9038-9773; type: cell-based
Adenosine receptor A1 [9] = target: T2, Adenosine receptor A1; test: Displacement of [3H]DPCPX from human Adenosine A1 receptor expressed in CHO cells; ranges from 1460-2201; type: cell-based
Adenosine receptor A2a [10] = target: T4, Adenosine receptor A2a; test: Displacement of [3H]-SCH- 58261 from human Adenosine A2A receptor expressed in HEK293 cells; ranges from 4.95-6.08; type: cell-based
Adenosine receptor A1 [11] = target: T2, Adenosine receptor A1; test: Displacement of [3H]-DPCPX binding at human Adenosine A1 receptor expressed in CHO cells; ranges from 9257-9817; type: cell-based
Adenosine receptor A2a [12] = target: T4, Adenosine receptor A2a; test: biochemical; remark: listed apart in the source
Adenosine receptor A1 [13] = target: T2, Adenosine receptor A1; test: Displacement of [3H]DPCPX binding at human Adenosine A1 receptor expressed in CHO cells; ranges from 363-514; type: cell-based
Adenosine receptor A2a [14] = target: T4, Adenosine receptor A2a; test: biochemical; remark: listed apart in the source
Adenosine receptor A1 [15] = target: T2, Adenosine receptor A1; test: Displacement of [3H]DPCPX from human Adenosine A1 receptor expressed in CHO cells; ranges from 324-420; type: cell-based

T4 sequence (P29274 whole entry): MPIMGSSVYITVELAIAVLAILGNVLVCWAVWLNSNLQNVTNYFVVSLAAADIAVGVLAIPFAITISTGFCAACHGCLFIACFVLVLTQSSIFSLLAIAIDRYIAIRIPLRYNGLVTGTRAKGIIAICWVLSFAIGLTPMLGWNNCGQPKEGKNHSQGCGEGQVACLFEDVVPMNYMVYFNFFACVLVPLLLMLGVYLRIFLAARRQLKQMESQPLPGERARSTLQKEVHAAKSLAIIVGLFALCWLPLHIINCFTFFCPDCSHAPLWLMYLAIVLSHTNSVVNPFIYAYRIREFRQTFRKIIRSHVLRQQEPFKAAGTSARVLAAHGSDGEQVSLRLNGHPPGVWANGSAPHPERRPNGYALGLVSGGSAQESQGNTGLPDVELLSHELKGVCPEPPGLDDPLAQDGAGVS

Row | Compound | Ki (Adenosine receptor A2b [1]) [µM] | Ki (Adenosine receptor A1 [2]) [nM] | Ki (Adenosine receptor A3) [µM] | Ki (Adenosine receptor A2a [3]) [nM] | further results
1 | Nc1nc2c(cnn2CCc2ccc(S(N)(=O)=O)cc2)c2nc(-c3ccco3)nn12 | > 10 | 2630 | > 10 | 1.31 | 
2 | Nc1nc2c(cnn2CCCc2ccc(S(=O)(=O)O)cc2)c2nc(-c3ccco3)nn12 | > 10 |  | > 10 |  | Ki (Adenosine receptor A2a [4]): 140 nM; Ki (Adenosine receptor A1 [5]): 139 nM
3 | Nc1nc2c(cnn2CCc2ccc(S(=O)(=O)N(CCCl)CCCl)cc2)c2nc(-c3ccco3)nn12 | > 10 | 5300 | > 10 | 0.59 | 
4 | Nc1nc2c(cnn2CCCc2ccc(N(CCO)CCO)cc2)c2nc(-c3ccco3)nn12 | > 10 | 558 | > 10 | 1.1 | 
5 | Nc1nc2c(cnn2CCCc2ccc3c(c2)OC(C(=O)O)(C(=O)O)O3)c2nc(-c3ccco3)nn12 [listing 1 of 2 here] |  |  |  |  | Ki (Adenosine receptor A2b [6]): > 10 µM; Ki (Adenosine receptor A2a [7]): 120 nM; Ki (Adenosine receptor A1 [8]): 9.4 µM; Ki (Adenosine receptor A3; cho): > 10 µM
6 | CCOC(=O)[C@@H]1Oc2ccc(CCCn3ncc4c3nc(N)n3nc(-c5ccco5)nc43)cc2O1 | > 10 |  | > 10 |  | Ki (Adenosine receptor A1 [9]): 1790 nM; Ki (Adenosine receptor A2a [10]): 5.48 nM
7 | Nc1nc2c(cnn2CCCc2ccc(C(=O)O)cc2)c2nc(-c3ccco3)nn12 | > 10 | 4960 | > 10 | 4.4 | 
8 | N=C(N)c1ccc(CCCn2ncc3c2nc(N)n2nc(-c4ccco4)nc32)cc1 | > 10 | 75 | > 10 | 55 | 
9 | Nc1nc2c(cnn2CCCc2ccc3c(c2)OC(C(=O)O)(C(=O)O)O3)c2nc(-c3ccco3)nn12 [listing 2 of 2 here] | > 10 |  | > 10 |  | Ki (Adenosine receptor A2a [7]): 120 nM; Ki (Adenosine receptor A1 [11]): 9.53 µM
10 | Nc1ccc(CCCn2ncc3c2nc(N)n2nc(-c4ccco4)nc32)cc1 | > 10 | 2160 | > 10 | 0.22 | 
11 | Nc1nc2c(cnn2CCCc2ccc3c(c2)OC(CO)(CO)O3)c2nc(-c3ccco3)nn12 | > 10 |  | > 10 |  | Ki (Adenosine receptor A2a [12]): 0.19 nM; Ki (Adenosine receptor A1 [13]): 432 nM
12 | CN1CCN(S(=O)(=O)c2ccc(CCn3ncc4c3nc(N)n3nc(-c5ccco5)nc43)cc2)CC1 | > 10 |  | > 10 |  | Ki (Adenosine receptor A2a [14]): 3.8 nM; Ki (Adenosine receptor A1 [15]): 369 nM
13 | CCOC(=O)c1ccc(CCCn2ncc3c2nc(N)n2nc(-c4ccco4)nc32)cc1 | > 10 | 4490 | > 10 | 4 | 
14 | Nc1nc2c(cnn2CCCc2ccccc2)c2nc(-c3ccco3)nn12 [SCH-63390] | > 10 | 350 |  | 1.2 | 
